Experimental data reported in patent US20230174975A1 (priority 2020, published 2023).
Structures can show the parent of a compound that is named as a salt. Where two headings read alike, the source gives them in different places.

How the values were obtained:
229E virus = assay: organism not typed; format: cell-based, human 229E coronavirus; conditions: for combination effect with Camostat mesylate (in words) / combination effect with IFNα 4b (in words) / inhibition of virus replication: PAC-MAN with the guide; for inhibition of virus replication: no drug, 24 hpi, vs NT6
229E [1] = format: cell-based, human 229E coronavirus
[2] = test system: methylenetetrahydrofolate dehydrogenase 1 (MTHFD1); assay: Knockdown of endogenous gene in A549 cells by Cas13d and crRNAs (qPCR); format: cell-based, human; conditions: 3 days
229E [3] = format: cell-based, human 229E coronavirus; remark: listed apart in the source
[4] = test system: transmembrane protease, serine 2 (TMPRSS2); assay: Knockdown of endogenous gene in A549 cells by Cas13d and crRNAs (qPCR); format: cell-based, human; conditions: 3 days
SARS-CoV-2 = format: cell-based; conditions: supernatant test, SARS-CoV-2 MOI=0.01
[5] = single agent alone, vs control (NT)

## R19: crRNA targeting SARS-CoV-2 RdRP sequence (Table 8); not 229E crR19 (guide CACCATCGTAACAATCAAAGTA; chemistry not given here)
229E virus
  combination effect with Camostat mesylate (in words): promising synergistic effect
  combination effect with IFNα 4b (in words): minus effect
  inhibition of virus replication: 50%

## crR8: crRNA (guide) targeting RdRP of human 229E coronavirus (guide AAUCUUUAAUUGCAGCAUCACC; chemistry not given here)
229E [1]
  inhibition of virus replication: about 80%

## SEQ ID NO: 13606: crRNA targeting endogenous gene MTHFD1 (guide CAATATCATAAAAACAGGGCCGG; chemistry not fully specified)
[2]
  knockdown of MTHFD1 mRNA (in words): efficiently knocked down

## crN1: crRNA (guide) targeting N gene of human 229E coronavirus; not N1 of Table 9 (guide AGCCCAUUUGACUGUAGCCAUC; chemistry not given here)
229E [1]
  inhibition of virus replication: about 80%
229E [3]
  cells alive: more than 90%

## SEQ ID NO: 13605: crRNA targeting endogenous gene TMPRSS2 (guide TACAGCGTAAAGAAACCACTGCT; chemistry not fully specified)
[4]
  knockdown of TMPRSS2 mRNA (in words): efficiently knocked down

## crR19: crRNA (guide) targeting RdRP of human 229E coronavirus; not R19 of Table 9 (guide CCAGCAGAAAUAAUACGGCUAG; chemistry not given here)
229E [1]
  inhibition of virus replication: about 80%

## N20: crRNA tested against live SARS-CoV-2 in Cas13d VeroE6 cells; best crRNA of that screen (guide ACUUCAUCAAUUAUGUCAGUUU; chemistry not given here)
229E [1]; guide screening, MRC-5 cells, viral titer in supernatant by RT-qPCR (FIG. 11)
  inhibition of virus replication: 95%
229E [3]; 229E MOI 0.01, up to 5 day infection
  protection of cells from death by 229E infection (in words): protected the cells from death
229E [3]; 229E MOI up to 1.0 (FIG. 21A)
  protection of cells from death at different MOIs (in words): protected the cells from death
229E virus
  combination effect with Camostat mesylate (in words): promising synergistic effect
  combination effect with IFNα 4b (in words): additive effect
  inhibition of virus replication: 84%
229E virus; PAC-MAN with the guide combined with IFNα 4b, vs NT
  fold decrease of virus titer: 10.1 fold
229E virus; [5]
  fold decrease of virus titer: 6.2 fold
SARS-CoV-2
  repression efficiency (viral RNA load): 96%

## CN(C)C(=O)COC(=O)Cc1ccc(OC(=O)c2ccc(NC(=N)N)cc2)cc1 [Camostat mesylate, reference compound]
229E virus
  EC50: ~500 µM
  combination effect of the drug with PAC-MAN (in words): synergistic effects
229E virus; [5]
  fold decrease of virus titer: 2.4 fold
other
  cytotoxicity: no obvious cytotoxicity
